Entries after “also recorded” stand apart in the source; their conditions may differ. Structures can show the parent of a compound that is named as a salt.
How the values were obtained:
Type in all cases: in vivo, rat
[1] = test system: male ZDF (Zucker Diabetic Fatty) rats; test: Plantar test (thermal hyperalgesia, withdrawal latency); conditions: for effect on thermal hyperalgesia (plantar test), acute treatment: single 64 mg/kg i.p., compared with week 7 baseline, 64 mg/kg
Protocol: (§1) The example 1 was dissolved in physiological saline (0.9%) and pH was corrected to 5 with NaOH. The compound was administered by the intraperitoneal (i.p.) route. The doses of drug employed in the present study were 64 mg/kg i.p. for acute administration and 25 mg/kg i.p. twice a day (BID) for the chronic treatment during 14 days. The compound and the saline (vehicle) adjusted at pH 5, were administered in a volume of 0.5 ml.
(§2) All experimental protocols were performed in strict accordance with the EC regulation for care and use of experimental animals (86/609/EEC). Studies were performed with male ZDF (Zucker Diabetic Fatty) rats (ZDF/Gmi, fa/fa) obtained from Charles Rivers Genetic Models Inc. 6 week old rats were housed in groups of two in standard transparent cages, under a 12 light-dark cycle, and animals were maintained on Purina 5008 (16.7 kcal % fat) diet and sterile tap water, available ad libitum. Nonfasting blood glucose levels and body weight were regularly monitored.
(§3) Acute example 1: animals received one injection (0.5 ml) of example 1 (64 mg/kg i.p.) 30 minutes before behavioral testing (n=8).
(§4) Chronic example 1: animals received one injection (0.5 ml) of example 1 (25 mg/kg BID, for 14 days) (n=8). Behavioral tests were performed once a week during the treatment, and one week after the last administration they were sacrificed and electrophysiological and cardiovascular experiments were carried out.
Thermal (heat) hyperalgesia (heat-nociception) was tested using a 37370 plantar test apparatus (Ugo Basile, Comerio VA, Italy). The withdrawal latency from a focused beam of radiant heat applied to the mid plantar surface of the hindpaws was recorded. The intensity of light was adjusted at the start of the experiment such that the control average baseline latencies were about 8 s and a cut-off latency of 30 s was imposed. The withdrawal latency of each paw was measured and the mean value was used for data analysis. The antihyperalgesic effect of the treatment was evidenced as an increase in the withdrawal latency respect to control baseline latencies.
Plantar test results are expressed as the percentage of the mean of thermal latency obtained from both hindpaws.
Data are expresses as mean+standard error mean (SEM). Statistical analysis of drug effects for significant differences between multiple groups were performed by analysis of variance (ANOVA), followed, when appropriate, by post-hoc Newman-Keuls test or Bonferroni Test. P<0.05 was considered as statistically significant.

[2] = test system: male ZDF (Zucker Diabetic Fatty) rats; test: Von Frey test (mechanical allodynia, pressure threshold)
Protocol: as §1, §2, §3, §4
Mechanical allodynia was assessed using an electronic Von Frey apparatus (EVF3, Bioseb, BP89, Chaville Cedez, France). Rats were placed individually on an elevated iron mesh floor, covered by a transparent plastic cage and were allowed to adapt to the testing environment for at least 15 minutes. The test was done by applying the von Frey filament through the mesh floor to the plantar surface of each hindpaw.
The test was performed three times with approximately 3 min interval between trials. The mean of the three trials was used for data analysis. […]
Von Frey test results are expressed as the percentage of the mean of mechanical threshold obtained from both hindpaws. […]

[3] = test system: male ZDF (Zucker Diabetic Fatty) rats; test: Spontaneous locomotor activity (photocell activity chambers)
Protocol: as §1
All experimental protocols were performed in strict accordance with the EC regulation for care and use of experimental animals (86/609/EEC). Studies were performed with male ZDF (Zucker Diabetic Fatty) rats (ZDF/Gmi, fa/fa) obtained from Charles Rivers Genetic Models Inc. 6 week old rats were housed in groups of two in standard transparent cages, under a 12 light-dark cycle, and animals were maintained on Purina 5008 (16.7 kcal % fat) diet and sterile tap water, available ad libitum. Nonfasting blood glucose levels and body weight were regularly monitored. […]
it was evaluated using individual photocell activity chambers (Cibertec, Spain). Rats were placed in the recording chambers (55×40 cm, spacing between beams 3 cm) […] after drug administration, and the number of interruptions of photocell beams was recorded over a 30-min period.
Spontaneous locomotor activity is expressed as the percentage of the mean number of crossings of the photocell beams over 30 minutes. […]

[4] = test system: Aδ-fibres of ZDF rats; test: Skin-nerve preparation and electrophysiological recordings (saphenous nerve Aδ-fibres, mechanical stimulation) after chronic treatment
Protocol: as §4
3.2 Skin—Nerve Preparation and Electrophysiological Recordings
In order to minimize pain or discomfort, animals were killed by cervical dislocation. The saphenous nerve and its innervating territory on the hairy hindpaw skin were subcutaneously dissected and excised. […] Neuronal activity was recorded using gold-wire electrodes. Small filaments of the nerve were repeatedly split with sharpened forceps until a single unit activity could be recorded from them. […] Spikes were later analyzed offline using the SPIDI software.
Units were first identified by manual probing of the skin with a blunt glass rod that exerts a pressure of more than 500 mN to search for their receptive field (RF). […] In order to characterize the units, we assessed their conduction velocity (CV) by electrically stimulating the RF with supramaximal square-wave pulses (pulse width, 0.5 ms; train frequency, 0.2 Hz; variable intensity) with a Teflon-coated steel microneurography electrode (shaft diameter 1 mm, bare tip diameter 5-10 μm impedance 1-5 MΩ); an indifferent electrode was placed nearby in the organ bath. […]

[5] = ZDF rats, 25 mg/kg i.p. BID for 14 days (week 13 to 15)
[6] = chronic treatment 25 mg/kg for 14 days, twice a day

Cc1cc(OCCN2CCOCC2)nn1-c1ccc2ccccc2c1 [Example 1, 4-{2-[5-methyl-1-(naphthalen-2-yl)-1H-pyrazol-3-yloxy]ethyl}morpholine hydrochloride]
increase of the latency to hindpaw withdrawal in response to thermal stimulation (plantar test) ([1]; ZDF rats aged 13 weeks, acute 64 mg/kg i.p., 30 minutes before test, mean±SEM, vehicle 12.6±6.9%): 25.5±9.1%
effect on thermal hyperalgesia (plantar test), acute treatment ([1]; ZDF rats aged 13 weeks, hydrochloride): reversed thermal hyperalgesia
effect on thermal hyperalgesia (plantar test), acute treatment ([1]; ZDF rats aged 13 weeks, listed as example 1, hydrochloride): restored baseline values; also recorded: reversed the changes in the thresholds
effect on thermal hyperalgesia (plantar test), chronic treatment [1, 5]: completely reversed
tolerance to the antihyperalgesic effect [1, 6]: No tolerance
effect on mechanical allodynia (Von Frey test), acute treatment ([2]; ZDF rats aged 13 weeks, single 64 mg/kg i.p., compared with week 7 baseline, listed as example 1, hydrochloride, 64 mg/kg): restored baseline values; also recorded: the mechanical allodynia was reversed; also recorded: reversed the changes in the thresholds
effect on mechanical allodynia (Von Frey test), chronic treatment [2, 5]: completely reversed
tolerance to the antiallodynic effect [2, 6]: No tolerance
spontaneous locomotor activity, chronic treatment ([3]; 25 mg/kg i.p. BID for 14 days, vs pretreatment values): no differences
spontaneous locomotor activity, acute treatment ([3]; single 64 mg/kg i.p.): not significantly different
threshold of response to the mechanical stimulation (electrophysiological recording) ([4]; 25 mg/kg i.p. BID for 14 days, vs vehicle-treated ZDF rats): reduced the threshold
hyperreactivity in response to mechanical stimulation in electrophysiological recordings (Aδ-fibres) ([4]; chronic treatment, conclusion): reduction of the hyperreactivity

From patent US9789117B2, “Use of sigma ligands in diabetes type-2 associated pain” (LABORATORIOS DEL DR. ESTEVE, S.A., priority 2011, dated 2017)
